# Reference: paper PMC9586938, “Picomolar fluorescent probes for compound affinity determination to carbonic anhydrase IX expressed in live cancer cells” (Scientific Reports, 2022)
# Biological target: T1, CAIX expressed on live HeLa cells (Homo sapiens, UniProt Q16790)
# T1 construct: recombinant CAIX and endogenous CAIX expressed on the cell surface; endogenous in cells; host or cells: HeLa (WT), grown under hypoxia (1% O2)
# Assay: Competition of unlabeled compound with 10 nM GZ19-32 on hypoxic HeLa cells (competitive binding model)
# Format: cell-based
# Conditions: fit parameter of the competitive binding model, HeLa cells; read-out: KdB (competing fluorescent compound, component B)
structure (smiles),measurement,value
"NS(=O)(=O)c1c(F)c(F)c(S(=O)(=O)CCC(=O)Nc2ccc3c(c2)C(=O)OC32c3ccc(O)cc3Oc3cc(O)ccc32)c(NC2CCCCCCC2)c1F [GZ19-32, 3-((2-(cyclooctylamino)-3,5,6-trifluoro-4-sulfamoylphenyl)sulfonyl)-N-(3',6'-dihydroxy-3-oxo-3H-spiro[isobenzofuran-1,9'-xanthen]-5-yl)propanamide]",Kd,0.2 nM
